Marks after values point to notes of the source that are not given here.
Key:
[1] = Hydrogen peroxide (H2O2) scavenging activity; assay type: biochemical
Protocol: Hydrogen peroxide scavenging activity of the composition was estimated in this study where initially, composition solutions were prepared at different concentrations in distilled water and the resultant solutions were mixed in 0.6 ml of 40 mM H2O2 solution prepared in phosphate buffer (0.1 M pH 7.4) and incubated for 10 min. The absorbance was measured at 230 nm against a blank solution containing H2O2. Similar procedure was repeated for the composition, mangiferin, and quercetin. The amount of hydrogen peroxide radical inhibited was calculated using the following equation. The result is expressed as % H2O2 radical scavenging activity.
[formula] [formula] where: Abs control—Absorbance of H2O2 radical Abs sample—Absorbance of sample extract/standard (the composition, mangiferin and quercetin) Result: […]

[2] = Lipid peroxidation inhibitory assay (TBARS, egg yolk homogenate); assay type: biochemical; details: Sample Concentration: 100-500 μg/ml
Protocol: A modified thiobarbituric acid reactive species (TBARS) assay (Ohkowa et al., 1979) is used to measure lipid peroxidation formed using egg yolk homogenate as lipid rich media (Ruberto et al., 2000).
Take 0.5 ml of egg homogenate (10% in distilled water) and 0.1 ml of test sample in the concentration range 100-500 μg/ml in a test tube and volume made up to 1 ml by adding distilled water. Finally add 0.05 ml ferrous sulphate (0.07M) to the above mixture and incubated for 30 min to induce the lipid peroxidation. Thereafter added 1.5 ml of 20% acetic acid (pH 3.5) and 1.5 ml of (0.8% in 1.1% SDS) TBA and 0.05 ml (20%) TCA then heated in boiling water bath for 60 min. After cooling 5 ml of butanol was added to all the test tubes and centrifuged at 3000 rpm for 10 min. Measured the absorbance of the organic upper layer at 532 nm. The percentage inhibition of lipid peroxidation was calculated from the formula,
[formula] where: Ab (cont)—is the absorbance of the control Ab (test sample)—is the absorbance of the test sample/standard

[3] = tested on: high fat diet fed male Wistar rats; assay: Anti-obesity activity in high fat diet fed rats; assay type: in vivo, rat; details: Group III, Orlistat 30 mg/kg
Protocol: Objective: The objective was to investigate the effect of the composition against high fat diet fed rats.
Animals: male Wistar rats (160 to 200 g); no. of animals: 36; housing: 3/cage, 12 hrs light/dark cycle; temperature: 25±2° c.
Model & composition of the diet: high fat diet in rats: 25% lard, 5% soybean oil; 5% starch; 65% normal commercial available rat feed
Groups: male Wistar rats were divided into six groups with six animals in each group.

Row | SMILES | % H2O2 radical scavenging activity ([1]; 10 μg/ml) | % H2O2 radical scavenging activity ([1]; 20 μg/ml) | % H2O2 radical scavenging activity ([1]; 30 μg/ml) | % H2O2 radical scavenging activity ([1]; 40 μg/ml) | Lipid peroxidation % inhibition [2] | Atherogenic Index [3] | BAT (brown adipose tissue) [3] | Difference in body weight gain [3] | Epididymal fat pad Left [3] | Epididymal fat pad Right [3] | Liver organ weight [3]
1 | O=c1c(O)c(-c2ccc(O)c(O)c2)oc2cc(O)cc(O)c12 [Quercetin(Standard), Quercetin] | 5.6% | 14.55% | 18.86% | 33.96% | 53.44% | – | – | – | – | – | –
2 | CCCCCCCCCCC[C@@H](C[C@@H]1OC(=O)[C@H]1CCCCCC)OC(=O)[C@H](CC(C)C)NC=O [Orlistat] | – | – | – | – | – | 1.39 ± 0.15^***b | 0.28 ± 0.01^nsb | 79.82 ± 2.58 ^b | 0.52 ± 0.03^nsb | 0.55 ± 0.02^nsb | 2.8 ± 0.08***^b
